The subject of series [1] is MKN-28 cell. Nature of the series: Appearance of mitotic (round) cells after colcemid treatment. Type of series: cell-based, human. The procedure: (§1) A synthetic colchicine, colcemid (J. Radiat. Res., 14, 258-270, 1971) was used to prepare the M-phase cell. The optimum conditions for obtaining the living M-phase cell, and the conditions for evaluation the activity of inhibiting a cell proliferation by the MTT method were examined.
(§2) More particularly, cells were cultivated in a 25-cm^2 culture flask (Falcon, 3014, 50 mL) for 3 days. After the mono-layered cells were washed, a growth medium supplemented with 0.025 μg/mL of colcemid (Nakarai, 09356-74) was added, and incubated at 37° C. for 6 hours. After the cells were washed gently, the culture flask was gently shaken to collect cells removed from the bottom of the flask. The collected cells were washed with the medium (GM) by centrifugation to remove colcemid. The washed cells were suspended in the growth medium and incubated.
(§3) The incubated cells were observed under a microscope at intervals of an hour; an appearance of mitotic cells is shown in Table 19. The appearance of mitotic cells was judged by an appearance of round cells as an index. Although almost cultured cells adhere to the glass surface and are thinly spread, mitotic cells become round and tend to leave the glass surface. Therefore, an appearance of round cells which tend to leave the monolayer was used as the index.
(§4) In Table 19, “−” means that the round cells appeared at a percentage of 0% with respect to the whole cells, “±” means that the round cells appeared at a percentage less than 5%, and “+” means that the round cells appeared at a percentage from 5% to less than 30%. The numbers in parentheses of “Round cells/flask” are numbers of positive cells strained by trypan blue.

Series [2] concerns MRC-5 cell. The description is as above. Type of series: cell-based, human. As to the method: as §1, §2, §3, §4
For a further series, the system named is HeLa cell. The series can be described thus: MTT method, cell proliferation inhibition by cell fractions. Type of series: cell-based. Conditions: Homo sapiens. As to the method:
(§5) More particularly, cells for evaluation, i.e., a cancer cell line (for example, an MKN-28 cell or a HeLa cell) and a normal cell (for example, an MRC-5 cell or an HEF cell) are prepared as cell suspensions. An appropriately diluted series (for example, 1/2, 1/4, 1/8, 1/16, and 1/32) of a DNase solution are poured into each well of a microplate. After each cell suspension is further added into each well, the cells are cultivated for a predetermined period (for example, 4 days). After the cultivation, an MTT [3-(4,5-dimethylthiazol-2-yl)-2,5-diphenyltetrazolium bromide; Sigma chemical Co.] solution is added into each well. After an incubation for a predetermined period (for example, at 37° C. for 4 hours), a culture supernatant is removed from each well, and then an MTT formazan elution liquid [acidified isopropanol containing 10% (V/V) Triton X-100] is added into each well. […] The IC50 value is indicated as a dilution of a test liquid or a concentration (for example, μg/mL) of a test drug which can inhibit a proliferation of a control cell (without an antitumor agent) to 50%. When the dilution is high, or when the drug concentration is low, it can be judged that the drug (substance) tested has a high activity.
(§6) As cells for evaluation, the MKN-28 cell and the HeLa cell were used as cancer cell lines, and the MRC-5 cell was used as a normal cell. After each cell line was cultured for 3 days, cells were treated with trypsin, and dispersed cells were washed with PBS by centrifugation. Washed cells were suspended in a Dulbecco's modified Eagle's MEM medium containing 8% fetal calf serum (hereinafter referred to as GM), and counted with a hemocytometer. Each cell suspension was adjusted with the GM to cell densities of 5000 cells/50 μL and 2500 cells/50 μL (cancer cell lines) or 10000 cells/50 μL and 5000 cells/50 μL (MRC-5 cell).
(§7) To each well in a 96-well flat-bottomed plate, diluted series (undiluted, 1/2, 1/4, 1/8, 1/16, and 1/32; 50 μL/well) of each centrifugal supernatant or centrifugal pellet prepared in Example 1 were added. Further, each cell suspension was added to each well, and the plate was incubated at 37° C. in a CO2 incubator. After 3 or 4 days from the beginning of the incubation, 20 μL/well of an MTT solution was added to each well, and the plate was incubated at 37° C. for 3 hours. The culture supernatant was removed from each well, and 100 μL of an MTT formazan elution liquid was added to each well.
(§8) As a control, PBS was used instead of the diluted series of each centrifugal supernatant or centrifugal pellet. For comparison, 5-fold-diluted series (100 μg/mL, 20 μg/mL, 4 μg/mL, 0.8 μg/mL, 0.16 μg/mL, and 0.032 μg/mL) of 5-fluorouracil (5-FU) were used instead of the diluted series of each centrifugal supernatant or centrifugal pellet.
(§9) The IC50 values when the cancer cell line MKN-28 was used as the cell for evaluation and the centrifugal supernatant and the centrifugal pellet derived from the MKN-28 cell were used as the cell fraction are shown in Table 6. Each IC50 value shown in Table 6 (or Tables 7 to 10 described below) is an average of plural (two to four) values. Each IC50 value is shown as a dilution (i.e., relative value) of a test liquid [or a concentration of a test drug (μg/mL for 5-FU)] which can inhibit a proliferation of a control cell (without an antitumor agent) to 50%.

Series [3] deals with MKN-28 cell. The description is as above. Type of series: cell-based. Conditions: Homo sapiens. As to the method:
as §5, §6, §7, §8, §9

For series [4], the system named is MRC-5 cell. Described as above. It counts as cell-based. To be noted: Homo sapiens. As to the method:
as §5, §6, §7, §8, §9

The values below come from US20060228347A1, “Antitumor agent and dnase” (Susumu SUNAGA and SUNNYVALE COMPANY, priority 2005, published 2006).

Values after ≈ are worked out from the molar mass of the structure shown.

The IC50 is the concentration that gives 50% inhibition. Low values mean inhibition by little substance, high ones a need for much substance.

On to `CN[C@H]1CCc2cc(OC)c(OC)c(OC)c2-c2ccc(OC)c(=O)cc21` [colcemid], for which the Round cells/flask with MKN-28 cell [1] (MKN-28) was 93000; in the series with MRC-5 cell [2] (MRC-5), 153000. Also, the figures for the “yield of colcemid-treated cells (number of cells after the treatment/number of cells before the treatment)” value in the series with MKN-28 cell [1] (MKN-28) and with MRC-5 cell [2] (MRC-5) were 1.4% and 29%, respectively. Moreover, the “Appearance of round cells” value with MKN-28 cell [1] (MKN-28, 1 hr, 0.025 μg/mL colcemid) is reported as “− (the round cells appeared at a percentage of 0% with respect to the whole cells)”; in the series on MKN-28 cell [1] (MKN-28, 2 hr) it was “± (the round cells appeared at a percentage less than 5%)”; in the series on MKN-28 cell [1] (MKN-28, 3 hr), “+ (the round cells appeared at a percentage from 5% to less than 30%)”; in the series with MKN-28 cell [1] (MKN-28, 4 hr) it was “+ (the round cells appeared at a percentage from 5% to less than 30%)”; in the series with MKN-28 cell [1] (MKN-28, 5 hr), “+ (the round cells appeared at a percentage from 5% to less than 30%)”; in the series on MRC-5 cell [2] (MRC-5, 1 hr, 0.025 μg/mL colcemid) it was “− (the round cells appeared at a percentage of 0% with respect to the whole cells)”. For the same compound, the “Appearance of round cells” value with MRC-5 cell [2] (MRC-5, 2 hr) is “± (the round cells appeared at a percentage less than 5%)”; in the series with MRC-5 cell [2] (MRC-5, 3 hr) it was “+ (the round cells appeared at a percentage from 5% to less than 30%)”; in the series with MRC-5 cell [2] (MRC-5, 4 hr), “+ (the round cells appeared at a percentage from 5% to less than 30%)”; in the series with MRC-5 cell [2] (MRC-5, 5 hr) it was “+ (the round cells appeared at a percentage from 5% to less than 30%)”. Further, the “Round cells/flask: positive cells strained by trypan blue” value in the series on MKN-28 cell [1] (MKN-28, number in parentheses) was found to be 0; in the series with MRC-5 cell [2] (MRC-5, number in parentheses), 0.

As for `O=c1[nH]cc(F)c(=O)[nH]1` [5-FU, 5-fluorouracil], the concentration for half-maximal inhibition (IC50) was 5 µg/mL (≈ 38.4 µM) in the series on HeLa cell (72 h, Table 7, HeLa (3 days), 2500 cells/well); 7.3 µg/mL (≈ 56.1 µM) in the series on HeLa cell (72 h, Table 7, HeLa (3 days), 5000 cells/well); 7 µg/mL (≈ 53.8 µM) with HeLa cell (72 h, Table 9, 3-day cultivation, 2500 cells/well); 12 µg/mL (≈ 92.3 µM) in the series with HeLa cell (72 h, Table 9, 3-day cultivation, 5000 cells/well); 3.6 µg/mL (≈ 27.7 µM) with HeLa cell (96 h, Table 7, HeLa (4 days), 2500 cells/well); 3.6 µg/mL (≈ 27.7 µM) with HeLa cell (96 h, Table 7, HeLa (4 days), 5000 cells/well). Besides, the concentration for half-maximal inhibition (IC50) in the series with HeLa cell (96 h, Table 10, 4-day cultivation, 2500 cells/well) came to 6.2 µg/mL (≈ 47.7 µM); in the series with HeLa cell (96 h, Table 10, 4-day cultivation, 5000 cells/well), 13 µg/mL (≈ 99.9 µM); in the series on MKN-28 cell [3] (MKN-28, 72 h, Table 6, MKN (3 days), 2500 cells/well), 4.6 µg/mL (≈ 35.4 µM); in the series on MKN-28 cell [3] (MKN-28, 72 h, Table 6, MKN (3 days), 5000 cells/well), 5.9 µg/mL (≈ 45.4 µM); with MKN-28 cell [3] (MKN-28, 72 h, Table 9, 3-day cultivation, MKN, 2500 cells/well), 4.6 µg/mL (≈ 35.4 µM); in the series with MKN-28 cell [3] (MKN-28, 72 h, Table 9, 3-day cultivation, MKN, 5000 cells/well) it was 6 µg/mL (≈ 46.1 µM). Moreover, the IC50 in the series with MKN-28 cell [3] (MKN-28, 96 h, Table 6, MKN (4 days), 2500 cells/well) was 3.7 µg/mL (≈ 28.4 µM); in the series on MKN-28 cell [3] (MKN-28, 96 h, Table 6, MKN (4 days), 5000 cells/well), 14.8 µg/mL (≈ 114 µM); in the series with MKN-28 cell [3] (MKN-28, 96 h, Table 10, 4-day cultivation, MKN, 2500 cells/well) it was 4.7 µg/mL (≈ 36.1 µM); with MKN-28 cell [3] (MKN-28, 96 h, Table 10, 4-day cultivation, MKN, 5000 cells/well) it was 11.6 µg/mL (≈ 89.2 µM); with MRC-5 cell [4] (MRC5, 72 h, Table 8, MRC (3 days), 5000 cells/well) it was > 100 µg/mL; in the series on MRC-5 cell [4] (MRC5, 72 h, Table 8, MRC (3 days), 10000 cells/well), > 100 µg/mL. The IC50 in the series with MRC-5 cell [4] (MRC5, 72 h, Table 9, 3-day cultivation, MRC, 5000 cells/well) was > 100 µg/mL; in the series on MRC-5 cell [4] (MRC5, 72 h, Table 9, 3-day cultivation, MRC, 10000 cells/well), > 100 µg/mL; with MRC-5 cell [4] (MRC5, 96 h, Table 8, MRC (4 days), 5000 cells/well), 92 µg/mL (≈ 707 µM); with MRC-5 cell [4] (MRC5, 96 h, Table 8, MRC (4 days), 10000 cells/well), > 100 µg/mL; in the series with MRC-5 cell [4] (MRC5, 96 h, Table 10, 4-day cultivation, MRC, 5000 cells/well) it was 92 µg/mL (≈ 707 µM); with MRC-5 cell [4] (MRC5, 96 h, Table 10, 4-day cultivation, MRC, 10000 cells/well) it was > 100 µg/mL.
